In one test the target is T1, FKBP12 (Homo sapiens, UniProt P62942).
T1 construct: the cells used were MCF7 WT; endogenous in cells; host or cells: MCF7 WT
Nature of the test: FKBP12 degradation in MCF7 breast cancer cell line. The conditions noted are these: MCF7 WT; 3 μM; 2, 6, 16 and 24 hours. The class given is cell-based. The source says: (§1) A dimerization assay was used to detect the RPN13 and BRD4 dimerization by RAJQ9 (FIG. 40A). […] New compounds were synthesized in the series using the same conditions as RAJQ9 synthesis (See FIG. 26). It was confirmed in the BRD4 assay that the exemplary BRD4 degrader compounds (RAJQ14, RAJQ14-ester) bind to BRD4 (FIG. 44). It was observed that Myc was lost with BRD4 degraders in the MCF7 breast cancer cell line (FIG. 45). For the results shown in FIG. 45, the cells used were MCF7 WT, the exemplary BRD4 degrader compound was RAJQ14 (at 3 μM concentration), and the time points shown in the assay were 2 hours, 6 hours, 16 hours, and 24 hours. […] For the results shown in FIG. 46, the cells used were MCF7 WT, the drug was the exemplary FKBP12 degrader RAFKBP4 (at 3 μM concentration), and the time points shown in the assay were 2 hours, 6 hours, 16 hours, and 24 hours.

The target of the next test is RPN13 and BRD4 (Homo sapiens, UniProt O60885+Q16186). The experiment in a line: Dimerization assay of RPN13 and BRD4. The conditions noted are these: indicated concentrations. The class given is binding.
Description: as §1

Molecules are shown by their SMILES. Entries after “also recorded” stand apart in the source; their conditions may differ.

Sequence of RPN13 and BRD4 (Q16186 whole entry, other chains not shown): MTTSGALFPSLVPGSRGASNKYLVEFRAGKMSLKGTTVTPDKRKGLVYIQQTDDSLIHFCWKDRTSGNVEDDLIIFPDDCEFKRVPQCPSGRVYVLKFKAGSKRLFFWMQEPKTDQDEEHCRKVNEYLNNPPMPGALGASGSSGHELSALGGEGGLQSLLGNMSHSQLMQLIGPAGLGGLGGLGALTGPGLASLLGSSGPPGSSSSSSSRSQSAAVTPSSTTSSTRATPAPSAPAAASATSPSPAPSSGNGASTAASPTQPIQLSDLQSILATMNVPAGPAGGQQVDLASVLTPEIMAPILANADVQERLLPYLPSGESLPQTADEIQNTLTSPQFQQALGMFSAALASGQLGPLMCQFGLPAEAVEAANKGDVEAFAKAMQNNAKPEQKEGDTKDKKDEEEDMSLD
T1 sequence (P62942 whole entry): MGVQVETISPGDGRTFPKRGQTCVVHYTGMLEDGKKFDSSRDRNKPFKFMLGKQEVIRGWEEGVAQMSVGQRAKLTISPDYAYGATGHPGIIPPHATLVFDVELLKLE

On to `CC[C@H](C(=O)N1CCCC[C@H]1C(=O)OC(CCc1ccc(OC)c(OC)c1)c1cccc(OCC(=O)NCCOCCOCCOCCC(=O)NCCOCCN[C@@H](Cc2ccccc2)C(=O)N2C/C(=C\c3ccc(Cl)c(Cl)c3)C(=O)/C(=C/c3ccc(Cl)c(Cl)c3)C2)c1)c1cc(OC)c(OC)c(OC)c1` (some centres unmarked) [RAFKBP4], for which the “FKBP12 degradation in MCF7 cells” value on FKBP12 was “FKBP12 degradation”.
`Cc1sc2c(c1C)C(c1ccc(Cl)cc1)=N[C@@H](CC(=O)NCCN1CCN(CCCCCCOc3ccc(C[C@H](N)C(=O)N4C/C(=C\c5ccc(Cl)c(Cl)c5)C(=O)/C(=C/c5ccc(Cl)c(Cl)c5)C4)cc3)CC1)c1nnc(C)n1-2` [RAJQ9]: on RPN13 and BRD4, the “RPN13 and BRD4 dimerization” value was “can bring these two proteins (RPN13 and BRD4) together; also recorded: can dimerize these two proteins together”.

For the origin of these results see US11802132B2, “Small molecules for inducing selective protein degradation and uses thereof” (DANA-FARBER CANCER INSTITUTE, INC., priority 2018, dated 2023).
